One may read the IC50 as the concentration at which inhibition is half-maximal.

Each structure is given as a SMILES string.

These results are taken from paper PMC10726441, “Discovery of Tumor-Targeted 6-Methyl Substituted Pemetrexed and Related Antifolates with Selective Loss of RFC Transport” (ACS Medicinal Chemistry Letters, 2023).

Experiment [1] relates to MTXRIIOuaR2-4 CHO cells (R2; RFC-, PCFT-, and FR-null). The experiment is described as follows: Cell proliferation assay, transporter-null R2 CHO cells. Type of experiment: cell-based, Chinese hamster. Particulars: Cricetulus griseus, 96 h, 0-1000 nM, mean (standard error), 3-5 experiments. An excerpt: (§1) To assess the impact of 6-methyl substitutions on the bicyclic scaffolds of the pyrrolo[2,3-d]pyrimidine antifolates 1–4 on RFC transport vis-à-vis PCFT, FRα, and FRβ, we used a unique biological readout for transport activity. This involved proliferation assays with isogenic Chinese hamster ovary (CHO) sublines derived from RFC-, FR-, and PCFT-null MTXRIIOua^R2–4 CHO cells[39],[40] engineered to express the human FRα (RT16),[25] FRβ (D4),[25] RFC (PC43–10),[41] or PCFT (R2/PCFT4).[26],[42] As these CHO cell lines are genetically identical except for their folate transporters, differences in inhibition of cell proliferation by specific cytotoxic antifolates directly reflect transporter specificities.[19],[23]−[31],[42] […]
(§2) Reagents for biological studies. Leucovorin [(6R,S) 5-formyl tetrahydrofolate] and methotrexate (MTX) was provided by the Drug Development Branch, National Cancer Institute, Bethesda, MD. Other chemicals were obtained from commercial sources in the highest available purities. Pemetrexed (PMX; 1) [N-{4-[2- (2-amino-3,4-dihydro-4-oxo-7H-pyrrolo[2,3-d]pyrimidin-5-yl)ethyl]benzoyl-L-glutamic acid] (Alimta) was purchased from LC Laboratories (Woburn, MA). The syntheses of compounds 2 and 3 were previously described.7, 8 Additional chemicals were purchased from commercial sources in the highest available purities.
(§3) Cell Culture. The reduced folate carrier (RFC), proton-coupled folate transporter (SLC46A1; PCFT) and folate receptor (FR) α- and β-null Chinese hamster ovary (CHO) cell line MTXRIIOuaR2-49 was a gift from Dr. Wayne Flintoff (University of Western Ontario, London, ON). Four sublines were derived from the R2 subline by transfection with either RFC, PCFT, FRα, or FRβ, giving rise to PC43-10 (expresses human RFC), 10 R2/PCFT4 (expresses human PCFT),11 RT16 (expresses human FRα), 12 and D4 (expresses FRβ) cells. 12 Isogenic CHO sublines were routinely cultured in α-minimal essential medium (α-MEM) supplemented with 100 units/mL penicillin/100 μg/mL streptomycin, 2 mM L-glutamine and 10% bovine calf serum (Sigma-Aldrich). Transfected sublines of R2 cells were cultured in the presence of 1.5 mg/ml G418. […]
(§4) mM L-glutamine. Cell lines were tested for Mycoplasma by PCR using a Mycloplasma testing kit (Venor™ GeM Mycoplasma Detection Kit, Sigma). Frozen stocks were generated from authenticated Mycoplasma-free cultures.
(§5) For cell proliferation assays, CHO, KB, NCI-IGROV1 and IOSE 7576 cells were plated in 96-well dishes at densities ranging from 2500-5000 cells/well in 200 μL media and treated with a range of inhibitors spanning 0-1000 nM. Experiments with RT16, D4, IGROV1, IOSE 7576 and KB cells used folate-free RPMI 1640 (FF RPMI) media with 10% dialyzed fetal bovine serum and 100 units/mL penicillin/100 μg/mL streptomycin, supplemented with 2 nM leucovorin and 2 mM L-glutamine. FR-mediated drug uptake was assessed in parallel incubations including 200 nM folic acid. For R2/PCFT4, PC43-10 and R2 CHO cells, the medium was FF-RPMI supplemented with 10% dialyzed fetal bovine serum, 100 units/mL penicillin/100 μg/mL streptomycin, 25 nM leucovorin and 2 mM L-glutamine.
(§6) Cells were treated over a 96 h period at 37° C with 5% CO2 and relative cell numbers quantified using the CellTiter-blue cell viability assay (Promega, Madison, WI) and a fluorescence plate reader. Raw data were exported to Excel for analysis and the results were plotted using Graphpad Prism 6.0. Determinations of IC50s were made […]
(§7) assays have been previously described.7, 8, 11, 12, 15-20
(§8) Using KB cells, additional proliferation assays were performed with metabolite protection in folate- and glycine-free RPMI1640 with 10% dialyzed fetal bovine serum, 2 mM L-glutamine and antibiotics with 2 nM leucovorin to identify the targeted pathway and enzyme(s). 7, 8, 11, 12, 15-20 Inhibitory effects of the novel analogs on de novo thymidylate biosynthesis and de novo purine nucleotide biosynthesis were tested by incubating drugs with thymidine (10 μM) and adenosine (60 μM), respectively. […]

Another experiment has as its system PC43-10 (RFC) CHO cells. The experiment is described as follows: Cell proliferation assay, PC43-10 CHO cells expressing human RFC. Type of experiment: cell-based, Chinese hamster. The following applies: Cricetulus griseus, 96 h, 0-1000 nM, mean (standard error), 3-5 experiments.
From the text: as §1, §2, §3, §4, §5, §6, §7, §8

For another experiment, the system named is RT16 (FRα) CHO cells. The experiment in a line: Cell proliferation assay, RT16 CHO cells expressing human FRα. The class given is cell-based, Chinese hamster. Particulars: for IC50: Cricetulus griseus, RT16, 96 h, 0-1000 nM, mean (standard error), 3-5 experiments; for RFC/FRα Selectivity ratios: ratio of IC50 PC43-10 (RFC) to IC50 RT16 (FRα).
From the text: as §1, §2, §3, §4, §5, §6, §7, §8

Experiment [2] concerns KB nasopharyngeal carcinoma cells. The experiment is described as follows: Cell proliferation assay, KB tumor cells. Type of experiment: cell-based, human. Particulars: for IC50: Homo sapiens, 96 h, 0-1000 nM, mean (standard error), 3-5 experiments.
From the text: For the tumor cells, except the des-methyl compound 4 with IGROV1 cells, all compounds were inhibitory. […]
Reagents for biological studies. Leucovorin [(6R,S) 5-formyl tetrahydrofolate] and methotrexate (MTX) was provided by the Drug Development Branch, National Cancer Institute, Bethesda, MD. Other chemicals were obtained from commercial sources in the highest available purities. Pemetrexed (PMX; 1) [N-{4-[2- (2-amino-3,4-dihydro-4-oxo-7H-pyrrolo[2,3-d]pyrimidin-5-yl)ethyl]benzoyl-L-glutamic acid] (Alimta) was purchased from LC Laboratories (Woburn, MA). The syntheses of compounds 2 and 3 were previously described.7, 8 Additional chemicals were purchased from commercial sources in the highest available purities. […]
KB nasopharyngeal carcinoma cells were obtained from the American Type Culture Collection (Manassas, VA) and IGROV1 (NCI-IGROV1) (passage 5) ovarian adenocarcinoma cells13 were obtained from the Division of Cancer Treatment and Diagnosis, National Cancer Institute (Frederick, MD). Normal ovary cells immortalized with SV40 (IOSE 7576)14 were obtained from the Canadian OvCaRe Cell Bank […]
(Vancouver, B.C). IGROV1, KB and IOSE 7576 cells were cultured in complete FF-RPMI with 10% fetal bovine serum and 100 units/mL penicillin/100 μg/mL streptomycin, and 2 mM L-glutamine. Cell lines were tested for Mycoplasma by PCR using a Mycloplasma testing kit (Venor™ GeM Mycoplasma Detection Kit, Sigma). Frozen stocks were generated from authenticated Mycoplasma-free cultures.
as §5, §6
assays have been previously described.7, 8, 11, 12, 15-20 […]
7, 8, 11, 12, 15-20 Inhibitory effects of the novel analogs on de novo thymidylate biosynthesis and de novo purine nucleotide biosynthesis were tested by incubating drugs with thymidine (10 μM) and adenosine (60 μM), respectively. Incubation with glycine (130 µM) was used to assess the potential involvement of mitochondrial C1 targeted agents.15 To identify multiple metabolic targets, metabolite additions were added in combination.7, 8, 11, 12, 15-19 Finally, to distinguish targeting between the folate-dependent purine biosynthetic enzymes glycinamide ribonucleotide formyltransferase (GARFTase) and 5-aminoimidazole-4-carboxamide (AICA) ribonucleotide formyltransferase (AICARFTase), co-incubation experiments were performed using AICA hydrochloride (320 μM). 7, 8, 11, 12, […]
Statistics. The biological data reflect at least three experimental replicates. All statistical comparisons were performed using unpaired t-tests. Biological data are presented as mean values +/- standard errors using data without transformation.

Take `Nc1nc2[nH]cc(CCc3ccc(C(=O)N[C@@H](CCC(=O)O)C(=O)O)cc3)c2c(=O)[nH]1` [Compound 1, reference compound]: the IC50 was more than 1000 nM in experiment [1], 30.6 nM in the experiment on PC43-10 (RFC) CHO cells, 14 nM with RT16 (FRα) CHO cells and 9.95 nM in experiment [2].
For `Nc1nc2[nH]cc(CCCc3ccc(C(=O)N[C@@H](CCC(=O)O)C(=O)O)cc3)c2c(=O)[nH]1` [Compound 2], the results for the IC50 (in experiment [1]; in the experiment with RT16 (FRα) CHO cells) were more than 1000 nM and 47.9 nM, respectively.
Consider `Nc1nc2[nH]cc(CCc3ccc(C(=O)N[C@@H](CCC(=O)O)C(=O)O)s3)c2c(=O)[nH]1` [Compound 3], for which the IC50 was more than 1000 nM in experiment [1], 59.9 nM in the experiment on PC43-10 (RFC) CHO cells, 550 nM with RT16 (FRα) CHO cells and 833 nM in experiment [2]. Besides, in the experiment on RT16 (FRα) CHO cells, the “RFC/FRα Selectivity ratios” value is 0.11.
In the case of `Nc1nc2[nH]cc(CCc3ccc(C(=O)N[C@@H](CCC(=O)O)C(=O)O)c(F)c3)c2c(=O)[nH]1` [Compound 4], the IC50 in experiment [1] was more than 1000 nM; in the experiment on PC43-10 (RFC) CHO cells, 169 nM; in the experiment with RT16 (FRα) CHO cells it was 6.76 nM; in experiment [2], 77.3 nM. Besides, in the experiment with RT16 (FRα) CHO cells, the “RFC/FRα Selectivity ratios” value amounted to 25.
In the same order, the values of `Cc1[nH]c2nc(N)[nH]c(=O)c2c1CCc1ccc(C(=O)N[C@@H](CCC(=O)O)C(=O)O)cc1` [Compound 5] are more than 1000 nM, more than 1000 nM, 94.8 nM, 28.5 nM and more than 10.5.
On to `Cc1[nH]c2nc(N)[nH]c(=O)c2c1CCCc1ccc(C(=O)N[C@@H](CCC(=O)O)C(=O)O)cc1` [Compound 6], for which the IC50 in experiment [1] was more than 1000 nM; in the experiment on PC43-10 (RFC) CHO cells, more than 1000 nM; with RT16 (FRα) CHO cells, 63.8 nM; in experiment [2] it was 49.9 nM. Moreover, the “RFC/FRα Selectivity ratios” value in the experiment on RT16 (FRα) CHO cells is listed as more than 15.7.
In the case of `Cc1[nH]c2nc(N)[nH]c(=O)c2c1CCc1ccc(C(=O)N[C@@H](CCC(=O)O)C(=O)O)s1` [Compound 7], the 50% inhibitory concentration (IC50) in experiment [1] is more than 1000 nM; in the experiment with PC43-10 (RFC) CHO cells, more than 1000 nM; with RT16 (FRα) CHO cells, 2.53 nM; in experiment [2], 3.43 nM. The “RFC/FRα Selectivity ratios” value in the experiment on RT16 (FRα) CHO cells is reported as more than 395. In experiment [2] (KB cells, relative to compound 3), the “greater potency than the corresponding 6-desmethyl analogue 3, KB cells” value is recorded as 242 fold.
Turning to `Cc1[nH]c2nc(N)[nH]c(=O)c2c1CCc1ccc(C(=O)N[C@@H](CCC(=O)O)C(=O)O)c(F)c1` [Compound 8], the half-inhibitory concentration (IC50) in experiment [1] is more than 1000 nM; with PC43-10 (RFC) CHO cells, more than 1000 nM; in the experiment with RT16 (FRα) CHO cells, 100 nM; in experiment [2] it was 347 nM. The “RFC/FRα Selectivity ratios” value with RT16 (FRα) CHO cells was more than 10.
